Measurements as given in PubChem BioAssay (NCI).
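The compound was tested at five concentrations on cells cultured in 96-well plates, with a 48-hour exposure period. GI50 = concentration required for 50% inhibition of growth. TGI: concentration producing complete growth inhibition.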

Experiments:
Assay in all cases: NCI anticancer screen, dose series, 48 h
SK-MEL-2 melanoma = tested on: SK-MEL-2 melanoma
CCRF-CEM leukemia = tested on: CCRF-CEM leukemia
SF-295 CNS = tested on: SF-295 CNS
RPMI-8226 leukemia = tested on: RPMI-8226 leukemia
NCI-H522 lung = tested on: NCI-H522 lung
OVCAR-4 ovarian = tested on: OVCAR-4 ovarian
MALME-3M melanoma = tested on: MALME-3M melanoma
DU-145 prostate = tested on: DU-145 prostate
MDA-MB-231 breast = tested on: MDA-MB-231 breast
HCT-15 colon = tested on: HCT-15 colon
SN12C renal = tested on: SN12C renal
SF-268 CNS = tested on: SF-268 CNS
HOP-62 NSCLC = tested on: HOP-62 NSCLC
HL-60(TB) leukemia = tested on: HL-60(TB) leukemia
A498 renal = tested on: A498 renal
SNB-19 CNS = tested on: SNB-19 CNS
SK-OV-3 ovarian = tested on: SK-OV-3 ovarian
COLO 205 colon = tested on: COLO 205 colon
PC-3 prostate = tested on: PC-3 prostate
NCI-H23 lung = tested on: NCI-H23 lung
CAKI-1 renal = tested on: CAKI-1 renal
HOP-92 NSCLC = tested on: HOP-92 NSCLC
SK-MEL-5 melanoma = tested on: SK-MEL-5 melanoma
HT29 colon = tested on: HT29 colon
K-562 leukemia = tested on: K-562 leukemia
UO-31 renal = tested on: UO-31 renal
EKVX NSCLC = tested on: EKVX NSCLC
OVCAR-3 ovarian = tested on: OVCAR-3 ovarian
U251 CNS = tested on: U251 CNS
MOLT-4 leukemia = tested on: MOLT-4 leukemia
HCT-116 colon = tested on: HCT-116 colon
RXF 393 renal = tested on: RXF 393 renal
NCI-H460 lung = tested on: NCI-H460 lung
OVCAR-8 ovarian = tested on: OVCAR-8 ovarian
SK-MEL-28 melanoma = tested on: SK-MEL-28 melanoma
HCC-2998 colon = tested on: HCC-2998 colon
MDA-MB-435 = tested on: MDA-MB-435
M14 melanoma = tested on: M14 melanoma
786-0 renal = tested on: 786-0 renal
BT-549 breast = tested on: BT-549 breast
NCI/ADR-RES ovarian = tested on: NCI/ADR-RES ovarian
LOX IMVI melanoma = tested on: LOX IMVI melanoma
OVCAR-5 ovarian = tested on: OVCAR-5 ovarian
UACC-62 melanoma = tested on: UACC-62 melanoma
SNB-75 CNS = tested on: SNB-75 CNS
MCF7 breast = tested on: MCF7 breast
ACHN renal = tested on: ACHN renal
T-47D breast = tested on: T-47D breast
SF-539 CNS = tested on: SF-539 CNS
KM12 colon = tested on: KM12 colon
SW-620 colon = tested on: SW-620 colon
IGROV1 ovarian = tested on: IGROV1 ovarian
TK-10 renal = tested on: TK-10 renal
A549 NSCLC = tested on: A549 NSCLC
NCI-H226 lung = tested on: NCI-H226 lung
HS 578T breast = tested on: HS 578T breast

SMILES: COc1cc(-c2csc(NC(=O)Nc3cc(C(F)(F)F)cc(C(F)(F)F)c3)n2)cc(OC)c1OC
- GI50 (SK-MEL-2 melanoma): 1.66 µM
- TGI (SK-MEL-2 melanoma): 5.85 µM
- GI50 (CCRF-CEM leukemia): 2.26 µM
- TGI (CCRF-CEM leukemia): 7.83 µM
- GI50 (SF-295 CNS): 1.83 µM
- TGI (SF-295 CNS): 5.46 µM
- GI50 (RPMI-8226 leukemia): 0.967 µM
- TGI (RPMI-8226 leukemia): 3.76 µM
- GI50 (NCI-H522 lung): 1.6 µM
- TGI (NCI-H522 lung): 5 µM
- GI50 (OVCAR-4 ovarian): 2.68 µM
- TGI (OVCAR-4 ovarian): 17 µM
- GI50 (MALME-3M melanoma): 2.15 µM
- TGI (MALME-3M melanoma): 7.32 µM
- GI50 (DU-145 prostate): 3.6 µM
- TGI (DU-145 prostate): 18.3 µM
- GI50 (MDA-MB-231 breast): 1.59 µM
- TGI (MDA-MB-231 breast): 3.92 µM
- GI50 (HCT-15 colon): 2.51 µM
- TGI (HCT-15 colon): 10.9 µM
- GI50 (SN12C renal): 3 µM
- TGI (SN12C renal): 11.8 µM
- GI50 (SF-268 CNS): 3.64 µM
- TGI (SF-268 CNS): 15.7 µM
- GI50 (HOP-62 NSCLC): 2.11 µM
- TGI (HOP-62 NSCLC): 6.36 µM
- GI50 (HL-60(TB) leukemia): 2.43 µM
- TGI (HL-60(TB) leukemia): 6.89 µM
- GI50 (A498 renal): 1.11 µM
- TGI (A498 renal): 5.08 µM
- GI50 (SNB-19 CNS): 3.56 µM
- TGI (SNB-19 CNS): 15.7 µM
- GI50 (SK-OV-3 ovarian): 2.59 µM
- TGI (SK-OV-3 ovarian): 8.57 µM
- GI50 (COLO 205 colon): 1.8 µM
- TGI (COLO 205 colon): 3.45 µM
- GI50 (PC-3 prostate): 1 µM
- TGI (PC-3 prostate): 7.55 µM
- GI50 (NCI-H23 lung): 2.38 µM
- TGI (NCI-H23 lung): 13.2 µM
- GI50 (CAKI-1 renal): 2.88 µM
- TGI (CAKI-1 renal): 12.1 µM
- GI50 (HOP-92 NSCLC): 1.35 µM
- TGI (HOP-92 NSCLC): 4.36 µM
- GI50 (SK-MEL-5 melanoma): 1.57 µM
- TGI (SK-MEL-5 melanoma): 3.24 µM
- GI50 (HT29 colon): 2.67 µM
- TGI (HT29 colon): 11.2 µM
- GI50 (K-562 leukemia): 1.92 µM
- TGI (K-562 leukemia): 12 µM
- GI50 (UO-31 renal): 2.85 µM
- TGI (UO-31 renal): 12.1 µM
- GI50 (EKVX NSCLC): 2.38 µM
- TGI (EKVX NSCLC): 13.9 µM
- GI50 (OVCAR-3 ovarian): 2.39 µM
- TGI (OVCAR-3 ovarian): 10.6 µM
- GI50 (U251 CNS): 2.73 µM
- TGI (U251 CNS): 10.7 µM
- GI50 (MOLT-4 leukemia): 2.17 µM
- TGI (MOLT-4 leukemia): 8.99 µM
- GI50 (HCT-116 colon): 2.55 µM
- TGI (HCT-116 colon): 10.2 µM
- GI50 (RXF 393 renal): 2.13 µM
- TGI (RXF 393 renal): 6.17 µM
- GI50 (NCI-H460 lung): 2.74 µM
- TGI (NCI-H460 lung): 10.8 µM
- GI50 (OVCAR-8 ovarian): 2.73 µM
- TGI (OVCAR-8 ovarian): 13 µM
- GI50 (SK-MEL-28 melanoma): 3.02 µM
- TGI (SK-MEL-28 melanoma): 12.6 µM
- GI50 (HCC-2998 colon): 3.81 µM
- TGI (HCC-2998 colon): 14.4 µM
- GI50 (MDA-MB-435): 2.81 µM
- TGI (MDA-MB-435): 10.5 µM
- GI50 (M14 melanoma): 2.35 µM
- TGI (M14 melanoma): 6.24 µM
- GI50 (786-0 renal): 3.17 µM
- TGI (786-0 renal): 11.8 µM
- GI50 (BT-549 breast): 2.38 µM
- TGI (BT-549 breast): 7.84 µM
- GI50 (NCI/ADR-RES ovarian): 2.65 µM
- TGI (NCI/ADR-RES ovarian): 12.1 µM
- GI50 (LOX IMVI melanoma): 3.04 µM
- TGI (LOX IMVI melanoma): 12.3 µM
- GI50 (OVCAR-5 ovarian): 3.29 µM
- TGI (OVCAR-5 ovarian): 14 µM
- GI50 (UACC-62 melanoma): 1.59 µM
- TGI (UACC-62 melanoma): 4.53 µM
- GI50 (SNB-75 CNS): 2.27 µM
- TGI (SNB-75 CNS): 10.6 µM
- GI50 (MCF7 breast): 2.41 µM
- TGI (MCF7 breast): 11.8 µM
- GI50 (ACHN renal): 2.78 µM
- TGI (ACHN renal): 10.6 µM
- GI50 (T-47D breast): 1.93 µM
- TGI (T-47D breast): 9.65 µM
- GI50 (SF-539 CNS): 2.28 µM
- TGI (SF-539 CNS): 6.75 µM
- GI50 (KM12 colon): 2.49 µM
- TGI (KM12 colon): 11.8 µM
- GI50 (SW-620 colon): 3.21 µM
- TGI (SW-620 colon): 14.6 µM
- GI50 (IGROV1 ovarian): 4.25 µM
- TGI (IGROV1 ovarian): 18.1 µM
- GI50 (TK-10 renal): 2.45 µM
- TGI (TK-10 renal): 10.3 µM
- GI50 (A549 NSCLC): 2.62 µM
- TGI (A549 NSCLC): 12.4 µM
- GI50 (NCI-H226 lung): 2.87 µM
- TGI (NCI-H226 lung): 12 µM
- GI50 (HS 578T breast): 2.24 µM
- TGI (HS 578T breast): 6.9 µM
